Patent US11179356B2, “Methods and compositions to modulate the gut microbiota and to manage weight” (Xeno Biosciences Inc., priority 2015, dated 2021)

Key:
[1] = over one year; cited from earlier work
[2] = test system: gut microbiota; experiment: Oral gavage of non-formulated peroxide, 16S rRNA sequencing of fecal samples (Example 7); format: in vivo, Sprague Dawley lean rats; conditions: rats, oral gavage three times daily in acidified water, total dose 600 mg/kg body weight, 3 days
Protocol: (§1) 6-7 week old Sprague Dawley lean rats were orally gavaged three times daily either with carbamide peroxide dissolved in acidified water as the treatment arm (total dose=600 mg/kg body weight) or with acidified water alone as the control arm (12 […] per arm) for 3 days. Gavage solution was prepared immediately before oral gavaging was performed. Each rat was fed a normal chow diet throughout (Research Diets) and kept under 12 hr-12 hr light-dark cycle in its own metabolic cage. Fresh fecal samples were collected at day 0 (basal measurement, before dosing start) and at the end of day 3 (after the final dose) and immediately stored at −80 C. Later, 16S rRNA sequencing was performed to measure relative abundance of different taxa in the stool samples. Body weight and food intake were measured daily.

[3] = Oral gavage of non-formulated peroxide, body weight and food intake (Example 7); format: in vivo, Sprague Dawley lean rats; conditions: rats, oral gavage three times daily in acidified water, total dose 600 mg/kg body weight, 3 days
Protocol: as §1

SMILES	weight loss [1]	change in gut microbiota composition between Day 0 and Day 3, treatment arm and control arm [2]	body weight, treatment versus control arm [3]	food intake, treatment versus control arm [3]
CC(C)(N)Cc1ccccc1 [Phentermine]	4-5%			
CCCCCCCCCCC[C@@H](C[C@@H]1OC(=O)[C@H]1CCCCCC)OC(=O)[C@H](CC(C)C)NC=O [Xenical]	3-4%			
NC(N)=O.OO [carbamide peroxide]		No significant change	no significant differences	no significant differences
